Source: patent US8987267B2, “2-substituted-8-alkyl-7-OXO-7,8-dihydropyrido[2,3-D]pyrimidine-6-carbonitriles and uses thereof in treating proliferative disorders” (Temple University—of the Commonwealth System of Higher …, priority 2010, dated 2015)

Key:
EPHA2 = EPHA2 (Homo sapiens, UniProt P29317); experiment: Kinase inhibition panel; assay type: biochemical; details: 10 μM ATP
JURKAT = experiment: Cytotoxicity assay, viable cell count; assay type: cell-based; details: Homo sapiens, T-Cell Lymphoma, 96 h continuous treatment, trypan blue
Procedure: (§1) Cells (1×10^5) were plated into 6-well dishes and 24 h later 8-cyclopentyl-2-((4-(4-methylpiperazin-1-yl)phenyl)amino)-7-oxo-7,8-dihydropyrido[2,3-d]pyrimidine-6-carbonitrile (12) was added at five different concentrations over a 2 log dilution (1-100 μM). The total number of viable cells was determined after 96 h of continuous treatment by staining with trypan blue and counting the number of non-staining cells (viable) remaining in each well using a hemacytometer. The percentage of viable cells remaining was calculated as follows: # viable cells (compound treated)/# viable cells (DMSO treated)*100.

MDA-MB-468 = experiment: Cytotoxicity assay, viable cell count; assay type: cell-based; details: Homo sapiens, MDA-MB-468, 96 h
Procedure: as §1

K562 = experiment: Cytotoxicity assay, viable cell count; assay type: cell-based; details: Homo sapiens; K562, CML; 96 h continuous treatment, trypan blue
Procedure: as §1

SK-OV-3 = experiment: Cytotoxicity assay, viable cell count; assay type: cell-based; details: Homo sapiens; SK-OV-3, Ovarian; 96 h continuous treatment, trypan blue
Procedure: as §1

SK-BR-3 = experiment: Cytotoxicity assay, viable cell count; assay type: cell-based; details: Homo sapiens; SK-BR-3, ErbB2 + Breast; 96 h continuous treatment, trypan blue
Procedure: as §1

Z138C = experiment: Cytotoxicity assay, viable cell count; assay type: cell-based; details: MCL, 96 h continuous treatment, trypan blue
Procedure: as §1

N87 = experiment: Cytotoxicity assay, viable cell count; assay type: cell-based; details: N87, Gastric(ErbB2+); 96 h continuous treatment, trypan blue
Procedure: as §1

SNU-475 = experiment: Cytotoxicity assay, viable cell count; assay type: cell-based; details: Homo sapiens; SNU-475, Hepatocellular carcinoma; 96 h continuous treatment, trypan blue
Procedure: as §1

DLD-1 = experiment: Cytotoxicity assay, viable cell count; assay type: cell-based; details: Homo sapiens; DLD-1, COLO-RECTAL; 96 h continuous treatment, trypan blue
Procedure: as §1

HCT-15 = experiment: Cytotoxicity assay, viable cell count; assay type: cell-based; details: Homo sapiens; HCT-15, Colon (MDR elevated); 96 h continuous treatment, trypan blue
Procedure: as §1

SNU-398 = experiment: Cytotoxicity assay, viable cell count; assay type: cell-based; details: Homo sapiens; SNU-398, Liver; 96 h continuous treatment, trypan blue
Procedure: as §1

SNU-5 = experiment: Cytotoxicity assay, viable cell count; assay type: cell-based; details: Homo sapiens; SNU-5, Gastric; 96 h continuous treatment, trypan blue
Procedure: as §1

BT20 = experiment: Cytotoxicity assay, viable cell count; assay type: cell-based; details: Homo sapiens, BT-20; BT20, Breast; 96 h continuous treatment, trypan blue
Procedure: as §1

GRANTA-519 = experiment: Cytotoxicity assay, viable cell count; assay type: cell-based; details: Homo sapiens; GRANTA-519, MCL; 96 h continuous treatment, trypan blue
Procedure: as §1

MCF-7 = experiment: Cytotoxicity assay, viable cell count; assay type: cell-based; details: Homo sapiens, MCF7; MCF-7, ER + Breast; 96 h continuous treatment, trypan blue
Procedure: as §1

COLO-205 = experiment: Cytotoxicity assay, viable cell count; assay type: cell-based; details: Homo sapiens; COLO-205, Colon; 96 h continuous treatment, trypan blue
Procedure: as §1

BT474 = experiment: Cytotoxicity assay, viable cell count; assay type: cell-based; details: Homo sapiens, BT-474; BT474, ErbB2 + Breast; 96 h continuous treatment, trypan blue
Procedure: as §1

Chain of EPHA2 (P29317 24-976, species assumed): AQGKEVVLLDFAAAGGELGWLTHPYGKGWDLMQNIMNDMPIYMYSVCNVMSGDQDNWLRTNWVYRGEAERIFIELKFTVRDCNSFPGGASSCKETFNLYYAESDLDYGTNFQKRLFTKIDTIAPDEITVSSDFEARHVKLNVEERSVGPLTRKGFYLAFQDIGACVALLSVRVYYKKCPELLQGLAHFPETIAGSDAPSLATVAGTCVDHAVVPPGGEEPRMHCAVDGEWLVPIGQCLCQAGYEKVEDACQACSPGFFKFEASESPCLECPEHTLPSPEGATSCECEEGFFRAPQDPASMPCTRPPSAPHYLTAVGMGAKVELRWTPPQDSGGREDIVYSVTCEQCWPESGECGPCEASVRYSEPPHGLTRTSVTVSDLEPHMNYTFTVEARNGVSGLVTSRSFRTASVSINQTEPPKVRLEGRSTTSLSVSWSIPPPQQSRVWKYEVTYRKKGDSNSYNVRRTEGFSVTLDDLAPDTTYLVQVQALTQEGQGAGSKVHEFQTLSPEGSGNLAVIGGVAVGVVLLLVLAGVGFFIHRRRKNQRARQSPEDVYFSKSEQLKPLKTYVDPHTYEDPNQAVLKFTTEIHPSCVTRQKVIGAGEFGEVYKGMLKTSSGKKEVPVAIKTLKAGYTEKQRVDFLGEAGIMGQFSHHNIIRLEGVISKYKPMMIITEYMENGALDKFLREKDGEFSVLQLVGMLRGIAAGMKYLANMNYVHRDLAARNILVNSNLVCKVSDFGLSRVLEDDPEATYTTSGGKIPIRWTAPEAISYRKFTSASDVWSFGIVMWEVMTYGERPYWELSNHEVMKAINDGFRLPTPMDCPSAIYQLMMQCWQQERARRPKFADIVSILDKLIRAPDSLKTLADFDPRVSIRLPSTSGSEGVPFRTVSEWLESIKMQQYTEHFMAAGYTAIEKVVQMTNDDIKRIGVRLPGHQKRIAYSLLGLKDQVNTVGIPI

CN1CCN(c2ccc(Nc3ncc4cc(C#N)c(=O)n(C5CCCC5)c4n3)cc2)CC1 [Compound 12, 8-cyclopentyl-2-((4-(4-methylpiperazin-1-yl)phenyl)amino)-7-oxo-7,8-dihydropyrido[2,3-d]pyrimidine-6-carbonitrile] showed an IC50 (EPHA2) of 114 nM, a GI50 (JURKAT) of 150 nM and a GI50 (MDA-MB-468) of 1500 nM. It also gave a GI50 (K562) of 500 nM, a GI50 (SK-OV-3) of 750 nM and a GI50 (SK-BR-3) of 600 nM. The GI50 (Z138C) was 25 nM, the GI50 (N87) was 900 nM and the GI50 (SNU-475) was 300 nM. For the same compound, the GI50 (DLD-1) was 100 nM, the GI50 (HCT-15) was 400 nM and the GI50 (SNU-398) was 500 nM. The GI50 (SNU-5) was 200 nM, the GI50 (BT20) was 100 nM and the GI50 (GRANTA-519) was 75 nM. The GI50 (MCF-7) was 150 nM, the GI50 (COLO-205) was 200 nM and the GI50 (BT474) was 250 nM.
